# Laboratory results published in article PMC8286840, “Identifying SARS-CoV-2 antiviral compounds by screening for small molecule inhibitors of Nsp3 papain-like protease” (Biochemical Journal, 2021).
# Where a name gives a salt, the structure may show the parent alone. Read-outs that look alike come from different tables or passages of the source.
# Tests used:
# [1] = molecular target: T1, SARS-CoV-2 PLpro (nsp3 1564–1878) (Severe acute respiratory syndrome coronavirus 2, UniProt P0DTD1); experiment: biochemical; parameters: FRET-quenched peptide (Pro3) cleavage by PLpro, 10 min pre-incubation, slope over 20 min, normalised to no-compound control; settings: high concentration screen, read-out: % of control remaining
# [2] = molecular target: T1, SARS-CoV-2 PLpro (nsp3 1564–1878); experiment: biochemical; parameters: FRET-quenched peptide (Pro3) cleavage by PLpro, 10 min pre-incubation, slope over 20 min, normalised to no-compound control; settings: low concentration screen, read-out: % of control remaining
smiles,measurement,setting,value
NS(=O)(=O)c1cc(C(=O)O)c(NCc2ccco2)cc1Cl [Furosemide],remaining activity at 3.75 µM,[1]; Well no.=659,94.4%
same,remaining activity at 3.75 µM,[1]; Well no.=2166,99.5%
same,remaining activity at 3.75 µM,[1]; Well no.=7462,102%
same,remaining activity at 1.25 µM,[2]; Well no.=659,92.2%
same,remaining activity at 1.25 µM,[2]; Well no.=2166,101%
same,remaining activity at 1.25 µM,[2]; Well no.=7462,102%
Cc1c(Nc2ncccc2C(=O)O)cccc1C(F)(F)F [Flunixin meglumin],remaining activity at 3.75 µM,[1]; Well no.=5094,108%
same,remaining activity at 1.25 µM,[2]; Well no.=5094,103%
CC(C)(C)C[C@@H]1N[C@@H](C(=O)N[C@H]2CC[C@H](O)CC2)[C@H](c2cccc(Cl)c2F)[C@]12C(=O)Nc1cc(Cl)ccc12 [SAR405838],remaining activity at 3.75 µM,[1]; Well no.=6550,110%
same,remaining activity at 1.25 µM,[2]; Well no.=6550,109%
CN1CC[C@@]2(C)c3cc(OC(=O)Nc4ccccc4)ccc3N(C)[C@@H]12 [Phenserine],remaining activity at 3.75 µM,[1]; Well no.=6093,89.8%
same,remaining activity at 1.25 µM,[2]; Well no.=6093,90.2%
Cc1cc([C@@H]2CCCN2C)on1 [ABT-418],remaining activity at 3.75 µM,[1]; Well no.=307,99.2%
same,remaining activity at 1.25 µM,[2]; Well no.=307,97.8%
Cc1ccccc1C(=O)c1ccc(Nc2ccc(Br)cc2N)cc1Cl [EO 1428 - (2-Methylphenyl)-[4-[(2-amino-4-bromophenyl)amino]-2-chlorophenyl]methanone],remaining activity at 3.75 µM,[1]; Well no.=2634,88.7%
same,remaining activity at 1.25 µM,[2]; Well no.=2634,87.4%
C[C@@]12C=Cc3occc3[C@H]1CC[C@]13CC(=O)[C@H](CC[C@H]12)C3 [16-Oxokahweol],remaining activity at 3.75 µM,[1]; Well no.=3693,99%
same,remaining activity at 1.25 µM,[2]; Well no.=3693,94.8%
CCN(CC)CCCC(C)Nc1c2ccc(Cl)cc2nc2ccc(OC)cc12 (stereo not drawn) [Quinacrine dihydrochloride],remaining activity at 3.75 µM,[1]; Well no.=1173,98.3%
same,remaining activity at 1.25 µM,[2]; Well no.=1173,96.3%
O=C1Cc2cc(CCN3CCN(c4nsc5ccccc45)CC3)c(Cl)cc2N1 [Ziprasidone (hydrochloride monohydrate)],remaining activity at 3.75 µM,[1]; Well no.=6563,90.8%
same,remaining activity at 1.25 µM,[2]; Well no.=6563,92.6%
CCCCC1(C2CCCC2)Cc2cc(OCC(=O)O)c(Cl)c(Cl)c2C1=O (stereo in doubt) [R(+)-Butylindazone],remaining activity at 3.75 µM,[1]; Well no.=640,101%
same,remaining activity at 1.25 µM,[2]; Well no.=640,97.4%
O=C(O[C@H]1C[N+]2(CCCOc3ccccc3)CCC1CC2)C(O)(c1cccs1)c1cccs1 [Aclidinium (Bromide)],remaining activity at 3.75 µM,[1]; Well no.=7336,101%
same,remaining activity at 1.25 µM,[2]; Well no.=7336,98%
CCCCC[C@H](O)/C=C/[C@@H]1[C@@H](C/C=C\CCCC(=O)O)[C@@H](O)C[C@H]1O [Dinoprost],remaining activity at 3.75 µM,[1]; Well no.=1667,101%
same,remaining activity at 1.25 µM,[2]; Well no.=1667,99.9%
O=C(O)C(O)c1cccc(O)c1 (stereo not drawn) [3-Hydroxymandelic Acid],remaining activity at 3.75 µM,[1]; Well no.=6879,98.2%
same,remaining activity at 1.25 µM,[2]; Well no.=6879,100%
COCCCOc1ccnc(C[S+]([O-])c2nc3ccccc3[nH]2)c1C (stereo not drawn) [sodium 2-((4-(3-methoxypropoxy)-3-methylpyridin-2-yl)methylsulfinyl)benzo[d]imidazol-1-ide],remaining activity at 3.75 µM,[1]; Well no.=6070,93.7%
same,remaining activity at 1.25 µM,[2]; Well no.=6070,95.8%
CN(C)C(=O)COC(=O)Cc1ccc(OC(=O)c2ccc(NC(=N)N)cc2)cc1 [Camostat mesylate],remaining activity at 3.75 µM,[1]; Well no.=5405,109%
same,remaining activity at 1.25 µM,[2]; Well no.=5405,101%
O=C(O)Cc1cnc[nH]1 [Imidazole-4-acetic acid hydrochloride],remaining activity at 3.75 µM,[1]; Well no.=620,101%
same,remaining activity at 1.25 µM,[2]; Well no.=620,97.6%
C=CCCCCCCCCCC(=O)O [11-Dodecenoic acid],remaining activity at 3.75 µM,[1]; Well no.=4258,96.7%
same,remaining activity at 1.25 µM,[2]; Well no.=4258,98.8%
COc1cc2nc(N3CCN(C(=O)C4COc5ccccc5O4)CC3)nc(N)c2cc1OC (stereo not drawn) [Doxazosin],remaining activity at 3.75 µM,[1]; Well no.=1988,104%
same,remaining activity at 1.25 µM,[2]; Well no.=1988,103%
CCCCCCCCCCC1=C(C)C(=O)C(OC)=C(OC)C1=O [Decylubiquinone],remaining activity at 3.75 µM,[1]; Well no.=3245,99.1%
same,remaining activity at 1.25 µM,[2]; Well no.=3245,100%
C[N+](C)(C)CCCCCCCCCC[N+](C)(C)C [Decamethonium],remaining activity at 3.75 µM,[1]; Well no.=1554,100%
same,remaining activity at 1.25 µM,[2]; Well no.=1554,97.2%
CNC(=C[N+](=O)[O-])NCCSCc1ccc(CN(C)C)o1 [Ranitidine hydrochloride],remaining activity at 3.75 µM,[1]; Well no.=1304,101%
same,remaining activity at 1.25 µM,[2]; Well no.=1304,101%
C/C(=N\NC(=O)C(NC(=O)c1ccccc1)c1n[nH]c(=O)c2ccccc12)c1cccc(Br)c1 (stereo not drawn) [AC-55541],remaining activity at 3.75 µM,[1]; Well no.=6997,106%
same,remaining activity at 1.25 µM,[2]; Well no.=6997,106%
COCc1c(C(C)C)nc(C(C)C)c(/C=C/[C@@H](O)C[C@@H](O)CC(=O)O)c1-c1ccc(F)cc1 [Cerivastatin],remaining activity at 3.75 µM,[1]; Well no.=1571,93.5%
same,remaining activity at 1.25 µM,[2]; Well no.=1571,91.1%
O[C@H]1[C@H](O)[C@@H](O)[C@H](O)[C@@H](O)[C@H]1O [Inositol],remaining activity at 3.75 µM,[1]; Well no.=5481,111%
same,remaining activity at 1.25 µM,[2]; Well no.=5481,111%
C=CCN1CC[C@]23CCCC[C@H]2[C@H]1Cc1ccc(O)cc13 [Levallorphan],remaining activity at 3.75 µM,[1]; Well no.=1702,103%
same,remaining activity at 1.25 µM,[2]; Well no.=1702,106%
CC(=O)O[C@H]1CC[C@@]2(C)C(=CC[C@@H]3[C@@H]2CC[C@]2(C)C(c4cccnc4)=CC[C@@H]32)C1 [Abiraterone Acetate (CB7630)],remaining activity at 3.75 µM,[1]; Well no.=5274,79.5%
same,remaining activity at 1.25 µM,[2]; Well no.=5274,88.4%
O=C(Nc1ccccc1C(=O)Nc1ccc(CCO)cc1)c1ccc([N+](=O)[O-])cc1 [KS-176],remaining activity at 3.75 µM,[1]; Well no.=5911,102%
same,remaining activity at 1.25 µM,[2]; Well no.=5911,101%
CCOC(=O)[C@H](CCc1ccccc1)N[C@@H](C)C(=O)N1C(=O)N(C)C[C@H]1C(=O)O [Imidapril (hydrochloride)],remaining activity at 3.75 µM,[1]; Well no.=7686,98%
same,remaining activity at 1.25 µM,[2]; Well no.=7686,99.8%
"CCCN(CCC)CCc1c[nH]c2ccc(C(N)=O)cc12 [N,N-Dipropyl-5-carboxamidotryptamine maleate]",remaining activity at 3.75 µM,[1]; Well no.=402,97.1%
same,remaining activity at 1.25 µM,[2]; Well no.=402,95.4%
C=CCn1c(=O)c2cnc(Nc3ccc(N4CCN(C)CC4)cc3)nc2n1-c1cccc(C(C)(C)O)n1 [MK-1775],remaining activity at 3.75 µM,[1]; Well no.=4947,99.7%
same,remaining activity at 1.25 µM,[2]; Well no.=4947,102%
O=C[C@H](Cl)[C@@H](O)[C@H](O)[C@H](O)CO [2-Chloro-2-deoxy-D-glucose],remaining activity at 3.75 µM,[1]; Well no.=441,104%
same,remaining activity at 1.25 µM,[2]; Well no.=441,103%
CC(C)CN(C[C@@H](O)[C@H](Cc1ccccc1)NC(=O)O[C@H]1CCOC1)S(=O)(=O)c1ccc(N)cc1 [Amprenavir],remaining activity at 3.75 µM,[1]; Well no.=2242,102%
same,remaining activity at 3.75 µM,[1]; Well no.=8648,95.7%
same,remaining activity at 1.25 µM,[2]; Well no.=2242,101%
same,remaining activity at 1.25 µM,[2]; Well no.=8648,94.1%
CCCC(CCC)C(=O)O [Valproic acid sodium],remaining activity at 3.75 µM,[1]; Well no.=812,99.4%
same,remaining activity at 1.25 µM,[2]; Well no.=812,99.6%
